# According to patent publication US8501787B2, “Compounds for the inhibition of angiogenesis and use thereof” (Shire Orphan Therapies GmbH, priority 2004, dated 2013):
# Where two headings read alike, the source gives them in different places.
# Assays:
# integrin alphaIIbbeta3 = biological target: T1, integrin alphaIIbbeta3 (Homo sapiens, UniProt P05106+P08514); assay: AlphaIIbbeta3-Fibrinogen binding assay (competitive ELISA); details: inhibition of integrin binding to fibrinogen; read-out: IC50 alphabIIbbeta3 in nM
# T1 construct: purchased Kordia (Kordia Life Science, Leiden, Netherlands)
# Protocol: (§1) The optimal concentrations of integrin and ligand were selected from ELISA binding studies with variable concentrations of both to obtain optimal signal noise ratio for further studies. IC50 studies were performed with fixed concentration of ligand and integrin and a serial dilution of inhibitor. The plates were measured with SpectraMax Plus reader (Molecular Devices). The resulting inhibition curves were analyzed using SoftMaxPro 4.0 software, the turning point describes the IC50 value.
# (§2) Fibronectin and Vitronectin were purchased from Sigma, fibrinogen from Calbiochem. (EMD Biosciences, Darmstadt, Germany) The integrin alpha5beta1 extracellular domain Fc-fusion was expressed and purified as described in (Coe, 2001, JBC, 276, 35854). Integrins alphavbeta3 and alphavbeta5 were purchased from Chemicon (Chemicon Europe, Germany) and alphaIIbbeta3 form Kordia (Kordia Life Science, Leiden, Netherlands)
# (§3) Fibrinogen was diluted with coating buffer (15 mM Na2CO3, 35 mM NaHCO3, pH9.6) and coated with 100 μL/well to Nunc-Immuno maxisorp plates over night at 4° C. After discarding the coating solution plates were washed 3 times with buffer 1 (25 mM Tris, pH7.6, 150 mM NaCl, 1 mM MnCl2, 1 mg/mL BSA) and blocked with 100 μL blocking buffer (3% BSA in PBS 0.1% Tween20) for 1 hour at room temperature. […] The developed colour was measured at 450 nm and analyzed as described above.
# integrin alpha5beta1 = biological target: T2, integrin alpha5beta1 (Homo sapiens, UniProt P05556+P08648); assay: Alpha5beta1-Fibronectin binding assay (competitive ELISA)
# T2 construct: The integrin alpha5beta1 extracellular domain Fc-fusion was expressed and purified; made in house
# Protocol: as §1, §2
# Fibronectin was diluted with coating buffer (15 mM Na2CO3, 35 mM NaHCO3, pH9.6) and coated with 100 μL/well to Nunc-Immuno maxisorp plates (Nalge Nunc Europe Ltd) over night at 4° C. After discarding the coating solution plates were washed 3 times with buffer 1 ([…], pH7.6, 150 mM NaCl, 1 mM […], 1 mg/mL BSA) and blocked with 100 μL blocking buffer (3% BSA in PBS 0.1% Tween20) for 1 hour at room temperature. After washing the blocked plates (3 times) with buffer 1, integrin (50 μL) and either inhibitor (serial dilution in buffer 1) or buffer 1 (50 μL) were added to the wells and incubated for one hour at RT. Plates were then washed (3 times) with buffer 1 and incubated with 100 μL of anti-human-Fc-HRP antibody conjugate (Sigma-Aldrich, Taufkirchen, Germany) in buffer 1 for 1 hour at RT. After additional washing steps (3 times) with buffer 1 50 μL of HRP substrate solution TMB (Seramun, Germany) were added to the wells. Colour development was stopped after 3-5 minutes with 50 μL 1M H2SO4. The developed colour was measured at 450 nm and analyzed as described above.
# integrin alphavbeta3 = biological target: T3, integrin alphavbeta3 (Homo sapiens, UniProt P05106+P06756); assay: Vitronectin binding assay, alphavbeta3 (competitive ELISA); details: inhibition of integrin binding to vitronectin
# T3 construct: purchased Chemicon (Chemicon Europe, Germany)
# Protocol: as §1, §2
# as §3, with “Vitronectin” for “Fibrinogen”
# [1] = tested on: K562 erythroleukemia cells; assay: Cell adhesion assay with K562 on fibronectin; format: cell-based; details: at 0.5 μM; OD 570
# Protocol: K562 erythroleukemia cells were obtained from the German Collection of Microorganisms and Cell Cultures GmbH (DMSZ, Braunschweig, Germany). Cells were cultured in RPMI medium containing 10% fetal calf serum, 2 mM glutamine and 100 U/mL penicillin-streptomycin (all from Biochrom AG, Germany).
# The cell adhesion assays were performed in 96-well Nunc-Immuno maxisorp plates. The wells were coated for 1 h at 37° C. with 100 μL aliquots of fibronectin (10 μg/mL in phosphate-buffered-saline, 120-kDa fragment, Chemicon Europe, Germany), then blocked with 10 mg/mL heat denatured BSA in phosphate buffer for 30 min.
# K562 cells were resuspended to 4×10^6 cells/mL in […], 25 mM Hepes, 2 mM EDTA, pH 7.4, and incubated for 30 min at 37° C. As a next step the cells were washed two times with the same buffer. 100 μL cell aliquots were then added to 100 μL aliquots of the same buffer with in addition 4 mM MgCl2, […] and different concentrations of compounds. These samples were preincubated for 30 min at 37° C. After that 100 μL aliquots were transferred to the microtiter wells and the cells were allowed to adhere to the substrate for 30 min at 37° C. in a humidified atmosphere of 5% CO2. […]
# The absorbance of each well at 570 nm was then measured using the SpectraMax Plus reader. […]
# integrin alphavbeta5 = biological target: T4, integrin alphavbeta5 (Homo sapiens, UniProt P06756+P18084); assay: Vitronectin binding assay, alphavbeta5 (competitive ELISA); details: inhibition of integrin binding to vitronectin
# T4 construct: purchased Chemicon (Chemicon Europe, Germany)
# Protocol: as §1, §2
# Vitronectin was diluted with coating buffer (15 mM Na2CO3, 35 mM NaHCO3, pH9.6) and coated with 50 μL/well to Nunc-Immuno maxisorp plates over night at 4° C. […]
# Plates were then washed (3 times) with buffer 2 and incubated with 50 μL of anti-alphavbeta5 antibody (Chemicon) in buffer 2 for 1 hour at RT. […] The developed colour was measured at 450 nm and analyzed as described above.
# retinal angiogenesis = assay: Physiological retinal angiogenesis at newborn rats; format: in vivo, Sprague Dawley rats; details: intravitreal injection at P1 and P3, evaluated at P6, compared to vehicle treated and non-treated eye
# From the text: Rats are born with a completely avascular retina with physiological retinal vascular development occurring in a centripetal manner within the first two weeks of life. At postnatal day P6 approximately 65% is physiologically vascularized, with vascularization being complete by P10-14.
# Sprague Dawley rats were used according to protocols which are in conformity with the Association for Research in Vision and Ophthalmology's statements on the Use of Animals in Ophthalmic Research.
# Rat pups were taken from within 24 h of birth and injected intravitreally at P1 with 3 μL of selected compound solved in saline. The same injection was repeated at P3. Controls include vehicle injected, as well as uninjected eyes. The animals were sacrificed by decapitation at P6. Upon sacrifice the eyes were enucleated and fixed in 10% buffered formalin phosphate (Fisher Scientific) for 30 minutes at RT. The retinas were dissected and post-fixed in methanol for 10 minutes at −20° C. The retinas were washed with 1% Triton X-100 in PBS and incubated overnight with a 1/100 solution of TRITC conjugated lectin griffonia simplicifolia (Sigma-Aldrich) in 1% Triton X-100 in PBS. […] The percentage of total vascularized area was calculated as a percent of the vascularized area over the total surface area (Adobe-Photoshop).
# [2] = inhibition of integrin binding to fibronectin, read-out: IC50 alpha5beta1 in nM
# [3] = method of section 1.1, read-out: Group (binding activities to integrin alpha5beta1)
IC50 (integrin alphaIIbbeta3) [nM],IC50 (integrin alpha5beta1; [2]) [nM],IC50 (integrin alpha5beta1; [3]) [nM],IC50 (integrin alphavbeta3) [nM],IC50 (integrin alphavbeta5) [nM],SMILES,inhibition of K562 cell adhesion to fibronectin [1],"retinal angiogenesis (vessel area, % of total retinal area) (retinal angiogenesis)"
> 50000,2.4,< 10,~30000,> 50000,"Cc1cc(C)c(C(=O)N[C@@H](CNC(=O)CO[C@@H]2C[C@@H](CNc3ccccn3)N(C(=O)OCc3ccccc3)C2)C(=O)O)c(C)c1 [Compound 71, 4-{[2-Carboxy-2-(2,4,6-trimethyl-benzoylamino)-ethylcarbamoyl]-methoxy}-2-(pyridin-2-ylaminomethyl)-pyrrolidine-1-carboxylic acid benzyl ester]",significantly active in inhibiting cell adhesion,–
9000,3.7,< 10,11.6,230,"Cc1cc(C)c(S(=O)(=O)N[C@@H](CNC(=O)CO[C@@H]2C[C@@H](CNc3ccccn3)N(C(=O)OCc3ccccc3)C2)C(=O)O)c(C)c1 [Compound 5, 12S,14R,30S-4-{[2-Carboxy-2-(2,4,6-trimethyl-benzenesulfonylamino)-ethylcarbamoyl]-methoxy}-2-(pyridin-2-ylaminomethyl)-pyrrolidine-1-carboxylic acid benzyl ester]",–,significantly reduced
